Source: PMC6355697, “Binding Specificity of Native Odorant-Binding Protein Isoforms Is Driven by Phosphorylation and O-N-Acetylglucosaminylation in the Pig Sus scrofa” (Frontiers in Endocrinology, 2019)
Like-named read-outs stand apart in the source and are kept apart here.

How the values were obtained:
OBP-native-iso1 [1] = target: T1, OBP-native-iso1 (Sus scrofa, UniProt P81245); test: Fluorescence titration with the probe AMA; assay type: binding; conditions: OBP-native-iso1 at 2.5 μM, 50 mM Tris buffer pH 7.8, estimated
T1 construct: Proteins were gently extracted from RM of pre-pubertal males of S. scrofa; from tissue; host or cells: RM (respiratory mucosa) extract of pre-pubertal male pigs, purified by two rounds of anion-exchange HPLC
T1 sequence (P81245 1-157): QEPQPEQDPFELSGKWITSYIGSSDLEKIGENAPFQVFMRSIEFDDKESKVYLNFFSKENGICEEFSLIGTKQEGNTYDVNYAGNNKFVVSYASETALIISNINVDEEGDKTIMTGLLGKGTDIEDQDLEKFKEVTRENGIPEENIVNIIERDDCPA
Description: (§1) Androstenone (3-keto-5α, 16-androstene), androstenol (3α-hydroxy-5α-androst-16-ene), testosterone (17β-hydroxy-3-oxo-4-androstene), palmitic acid (hexadecanoic acid), myristic acid (tetradecanoic acid), and AMA (1-aminoanthracene) were purchased from Sigma-Aldrich. UV-visible spectra were recorded on a Cary-100 double beam spectrometer (Varian) with a cell of 0.5 cm path length. The protein concentration was calculated by UV-visible spectroscopy, by using the molar extinction coefficient of 11,740 M^−1cm^−1 for OBP (calculated by the software “ProtParam tool” at www.expasy.org) at the maximum wavelength of absorption (280 nm). Steady state fluorescence measurements were performed on a Fluoromax-3 (Jobin-Yvon) spectrofluorimeter using a micro quartz cell (0.5 cm light-path) with a reflecting window. 1-Aminoantracene (AMA) was used as a fluorescent probe. The experimental conditions and data treatment have been described previously ([17]). The dissociation constant (Kd-AMA) of the OBP-AMA complex was calculated from the binding curve by fitting the experimental data with the use of the computer program Origin 7.5 (OriginLab Corporation). The affinities of the five ligands were measured in a competitive binding assay with AMA as the fluorescent probe. AMA was dissolved in 100% ethanol to yield a 1 mM stock solution. For protein titration, aliquots of AMA were successively added to the protein at 1 or 2.5 μM in 50 mM Tris buffer (pH 7.8) and emission spectra were acquired after a 15 min equilibration period. Competitive binding experiments were then carried out with different protein and ligand concentrations. The spectra were recorded 15 min after the ligand addition, and competition was monitored by following the decrease in intensity of fluorescence associated with the band of AMA bound to the protein. The apparent Kd values of the ligand-protein complexes were calculated as described in Brimau et al. ([17]).
(§2) We measured the affinity of the four native OBP isoforms for the five selected ligands under the same experimental conditions that were used previously for recombinant OBP isoforms ([17]). The four isoforms were first titrated with the fluorescent probe, AMA. OBP-native-iso3 was collected in smaller quantities than the 3 other isoforms and was used at a 1 μM concentration instead of 2.5 μM and saturated with 2 μM AMA, instead of 3.75 μM AMA. […] Two classes of isoforms, -iso1 and -iso2, bound the two fatty acids and not the steroids.

OBP-native-iso2 [2] = target: T2, OBP-native-iso2 (Sus scrofa, UniProt P81245); test: Fluorescence titration with the probe AMA; assay type: binding; conditions: OBP-native-iso2 at 2.5 μM, 50 mM Tris buffer pH 7.8, estimated
T2 construct: Proteins were gently extracted from RM of pre-pubertal males of S. scrofa; from tissue; host or cells: RM (respiratory mucosa) extract of pre-pubertal male pigs, purified by two rounds of anion-exchange HPLC
T2 sequence (P81245 1-157): T1 sequence (P81245 1-157)
Description: as §1, §2

OBP-native-iso3 [3] = target: T3, OBP-native-iso3 (Sus scrofa, UniProt P81245); test: Fluorescence titration with the probe AMA; assay type: binding; conditions: OBP-native-iso3 at 1 μM, 50 mM Tris buffer pH 7.8, estimated
T3 sequence (P81245 1-157): T1 sequence (P81245 1-157)
Description: as §1, §2

OBP-native-iso4 [4] = target: T4, OBP-native-iso4 (Sus scrofa, UniProt P81245); test: Fluorescence titration with the probe AMA; assay type: binding; conditions: OBP-native-iso4 at 2.5 μM, 50 mM Tris buffer pH 7.8, estimated
T4 sequence (P81245 1-157): T1 sequence (P81245 1-157)
Description: as §1, §2

OBP-native-iso1 [5] = target: T1, OBP-native-iso1; test: Competitive fluorescence binding assay with AMA as probe; conditions: for IC50: OBP-native-iso1 2.5 μM saturated with 3.75 μM AMA, competitor 0 to 6 μM; for Kd: calculated dissociation constant from AMA competition
Description: as §1, §2
(§3) Figure 6 Competitive binding assays of five selected ligands of biological relevance to native OBP isoforms from S. scrofa. (A) OBP-native-iso1; (B) OBP-native-iso2; (C) OBP-native-iso3; and (D) OBP-native-iso4. Proteins were used at 2.5 μM (A,B,D) or 1 μM (C) concentration and were saturated with 3.75 μM (A,B,D) or 2 μM (C) of the fluorescent probe 1-AMA. Competitors were added at increasing concentration from 0 to 6 μM (A,B) or to 15 μM (C,D).

OBP-native-iso2 [6] = target: T2, OBP-native-iso2; test: as above; conditions: for IC50: OBP-native-iso2 2.5 μM saturated with 3.75 μM AMA, competitor 0 to 6 μM; for Kd: calculated dissociation constant from AMA competition
Description: as §1, §2, §3

OBP-native-iso3 [7] = target: T3, OBP-native-iso3; test: as above; conditions: for binding of ligand (in words) / Kd: OBP-native-iso3; for IC50: OBP-native-iso3 1 μM saturated with 2 μM AMA, competitor 0 to 15 μM; for Kd: calculated dissociation constant from AMA competition
Description: as §1, §2, §3

OBP-native-iso4 [8] = test: as above; parameters: species or system Sus scrofa; conditions: ratio of Ka values
Description: as §1, §2, §3

OBP-native-iso4 [9] = target: T4, OBP-native-iso4; test: as above; conditions: for binding of ligand (in words) / Kd: OBP-native-iso4; for IC50: OBP-native-iso4 2.5 μM saturated with 3.75 μM AMA, competitor 0 to 15 μM; for Kd: calculated dissociation constant from AMA competition
Description: as §1, §2, §3

OBP-Pichia-iso3 = test system: OBP-Pichia-iso3; parameters: method as in PMID 20589419; conditions: OBP-Pichia-iso3, recombinant, phosphorylated only; cited from earlier work

Structure (SMILES)	IC50 (OBP-native-iso1 [5]; read-out: IC50) [nM]	IC50 (OBP-native-iso2 [6]; read-out: IC50) [nM]	binding of ligand (in words) (OBP-native-iso3 [7])	IC50 (OBP-native-iso3 [7]; read-out: IC50) [nM]	Kd (OBP-native-iso3 [7]) [nM]	binding of ligand (in words) (OBP-native-iso4 [9])	IC50 (OBP-native-iso4 [9]; read-out: IC50) [nM]	Kd (OBP-native-iso4 [9]) [nM]	binding of ligand (in words) (OBP-Pichia-iso3)	Kd (OBP-native-iso1 [5]; OBP-native-iso1) [nM]	Kd (OBP-native-iso2 [6]; OBP-native-iso2) [nM]	also measured
Nc1cccc2cc3ccccc3cc12 [AMA, 1-aminoanthracene]	–	–	–	–	–	–	–	–	–	–	–	Kd (OBP-native-iso1 [1]): 370 ± 20 nM; Kd (OBP-native-iso2 [2]): 230 ± 20 nM; Kd (OBP-native-iso3 [3]): 840 ± 80 nM; Kd (OBP-native-iso4 [4]): 500 ± 20 nM
C[C@]12CC[C@@H](O)C[C@@H]1CC[C@@H]1[C@@H]2CC[C@]2(C)C=CC[C@@H]12 [Androstenol, 3α-hydroxy-5α-androst-16-ene]	> 6000	> 6000	bind	2590	490	bind	1430	160	–	–	–	Ka value, OBP-native-iso4 compared with OBP-native-iso3 (OBP-native-iso4 [8]): three times greater
C[C@]12CCC(=O)C[C@@H]1CC[C@@H]1[C@@H]2CC[C@]2(C)C=CC[C@@H]12 [Androstenone, 3-keto-5α, 16-androstene]	> 6000	> 6000	bind	1280	230	bind	1890	220	–	–	–	–
CCCCCCCCCCCCCC(=O)O [Myristic acid, tetradecanoic acid]	330	1030	–	–	–	–	> 15000	–	to a lesser extent	50	110	–
CCCCCCCCCCCCCCCC(=O)O [Palmitic acid, hexadecanoic acid]	1030	1510	–	–	–	–	> 15000	–	not able to bind	160	160	–
C[C@]12CC[C@H]3[C@@H](CCC4=CC(=O)CC[C@@]43C)[C@@H]1CC[C@@H]2O [Testosterone, 17β-hydroxy-3-oxo-4-androstene, reference compound]	–	–	None of the four native isoforms bound	–	–	None of the four native isoforms bound	–	–	–	–	–	binding of ligand (in words) (OBP-native-iso1 [5]; OBP-native-iso1): None of the four native isoforms bound; IC50 (OBP-native-iso1 [5]): > 6000 nM; binding of ligand (in words) (OBP-native-iso2 [6]; OBP-native-iso2): None of the four native isoforms bound; IC50 (OBP-native-iso2 [6]): > 6000 nM; IC50 (OBP-native-iso3 [7]): > 6000 nM; IC50 (OBP-native-iso4 [9]): > 6000 nM
